Test results from EPA's ToxRefDB 2.

Assays:
rat [1] = conditions: Sub-acute repeat dose toxicity, sprague dawley, Oral, Gavage/Intubation, dose end: 5 day, group: systemic
dog [2] = conditions: Sub-acute repeat dose toxicity, beagle, Oral, Gavage/Intubation, dose end: 7 day, group: systemic
dog [3] = conditions: Sub-acute repeat dose toxicity, beagle, Oral, Gavage/Intubation, dose end: 5 day, group: systemic
mouse [4] = conditions: Subchronic oral toxicity in rodents, b6c3f1, Feed, dose end: 13 week, group: systemic
rat [5] = conditions: Carcinogenicity, fischer, Oral, Feed, dose end: 103 week, group: systemic
rat [6] = conditions: Subchronic oral toxicity in rodents, fischer, Feed, dose end: 90 day, group: systemic, systemic / in life observation / body weight / body weight gain + systemic / pathology microscopic / kidney / calculus + systemic / …
mouse [7] = conditions: Carcinogenicity, b6c3f1, Oral, Feed, dose end: 103 week, group: systemic
rat [8] = conditions: Subchronic oral toxicity in rodents, fischer, Feed, dose end: 13 week, group: systemic
mouse [9] = conditions: Subchronic oral toxicity in rodents, b6c3f1, Feed, dose end: 90 day, group: systemic
rat [10] = conditions: Subchronic oral toxicity in rodents, fischer, Feed, dose end: 13 week, group: systemic; remark: listed apart in the source
rat [11] = conditions: Prenatal developmental toxicity study, wistar, Oral, Gavage/Intubation, dose end: 15 GD
rat [12] = conditions: Multigenerational reproductive toxicity study, sprague dawley, Oral, Feed, dose end: 2 generation
rat [13] = conditions: Subchronic oral toxicity in rodents, other, Feed, dose end: 90 day, group: systemic
mouse [14] = conditions: Carcinogenicity, b6c3f1, Oral, Feed, dose end: 78 week, group: systemic
rat [15] = conditions: Carcinogenicity, fischer, Oral, Feed, dose end: 78 week, group: systemic
rat [16] = conditions: Subchronic oral toxicity in rodents, fischer, Gavage/Intubation, dose end: 13 week, group: systemic
rat [17] = conditions: Prenatal developmental toxicity study; sprague dawley; Oral; Gavage/Intubation; dose end: 15 GD; group: maternal; systemic / in life observation / body weight / body weight gain
mouse [18] = conditions: Subchronic oral toxicity in rodents, b6c3f1, Gavage/Intubation, dose end: 13 week, group: systemic
mouse [19] = conditions: Carcinogenicity; b6c3f1; Oral; Gavage/Intubation; dose end: 2 year; group: systemic; systemic / in life observation / body weight / body weight + systemic / in life observation / clinical signs / [other] + systemic / in life …
rat [20] = conditions: Combined chronic toxicity/carcinogenicity; fischer; Oral; Gavage/Intubation; dose end: 2 year; group: systemic; systemic / in life observation / clinical signs / ataxia + systemic / in life observation / clinical signs / prostration + systemic / in …
rat [21] = conditions: Multigenerational reproductive toxicity study, sprague dawley, Oral, Water, dose end: 2 generation, group: parental
rat [22] = conditions: Developmental neurotoxicity study, sprague dawley, Inhalation, Whole-Body, dose end: 2 generation, group: cannot be grouped
[23] = systemic / in life observation / body weight / body weight + systemic / in life observation / clinical signs / [other] + systemic / in life …
[24] = systemic / in life observation / body weight / body weight + systemic / in life observation / food consumption / food consumption + systemic…
[25] = systemic / in life observation / clinical signs / erythema + systemic / in life observation / clinical signs / prostration + systemic / in …
[26] = systemic / in life observation / clinical signs / erythema + systemic / in life observation / clinical signs / salivation
[27] = systemic / in life observation / clinical signs / abnormal feces
[28] = systemic / in life observation / clinical signs / abnormal feces + systemic / in life observation / clinical signs / emesis
[29] = systemic / in life observation / body weight / body weight + systemic / in life observation / body weight / body weight gain + systemic / in…
[30] = systemic / in life observation / body weight / body weight gain + systemic / pathology gross / thyroid gland / enlarged
[31] = systemic / in life observation / body weight / body weight gain + systemic / pathology gross / thyroid gland / enlarged + systemic / …
[32] = systemic / in life observation / body weight / body weight gain
[33] = systemic / in life observation / body weight / body weight gain + systemic / pathology microscopic / harderian gland / adenoma + systemic / …
[34] = systemic / pathology microscopic / thyroid gland / hyperplasia
[35] = systemic / in life observation / body weight / body weight gain + systemic / pathology microscopic / thyroid gland / hyperplasia + systemic…
[36] = systemic / clinical chemistry / albumin / albumin + systemic / clinical chemistry / triglycerides / triglycerides
[37] = systemic / clinical chemistry / alkaline phosphatase (alp/alk) / alkaline phosphatase (alp/alk) + systemic / clinical chemistry / bile acids…
[38] = group: developmental, systemic / in life observation / body weight / fetal weight + developmental / developmental malformation / mouth / jaw / cleft palate
[39] = group: maternal, reproductive / reproductive performance / postimplantation loss / postimplantation loss + reproductive / reproductive performance / …
[40] = group: offspring, developmental / developmental malformation / testes / delayed descent + developmental / developmental landmark / preputial separation / …
[41] = group: parental, systemic / in life observation / body weight / body weight + systemic / organ weight / adrenal gland / relative to body weight + systemic / …
[42] = group: reproductive, reproductive / reproductive performance / estrous cycle / periodicity + reproductive / reproductive performance / fertility / fertility
[43] = systemic / hematology / erythrocyte (rbc) count differential / erythrocyte (rbc) + systemic / hematology / hemoglobin (hgb) / hemoglobin (…
[44] = systemic / in life observation / body weight / body weight
[45] = systemic / in life observation / body weight / body weight + systemic / pathology microscopic / liver / adenoma/carcinoma combined + …
[46] = systemic / in life observation / clinical signs / tremors + systemic / in life observation / mortality / mortality + systemic / organ weight…
[47] = systemic / organ weight / adrenal gland / absolute + systemic / organ weight / adrenal gland / relative to body weight
[48] = systemic / organ weight / adrenal gland / absolute + systemic / organ weight / adrenal gland / relative to body weight + systemic / in life …
[49] = systemic / in life observation / body weight / body weight gain + systemic / in life observation / water consumption / water consumption + …

COc1ccc(NC(=O)c2c[nH]c3c2C(=O)CCCC3)c(F)c1 showed an LOAEL (rat [1]; [23]) greater than 250 mg/kg/day, an NOAEL (rat [1]; [23]) of no less than 250 mg/kg/day and an LEL (rat [1]; [24]) of 25 mg/kg/day. For the same compound, the NEL (rat [1]; [24]) was less than 25 mg/kg/day, the LOAEL (dog [2]; [25]) was greater than 250 mg/kg/day and the NOAEL (dog [2]; [25]) was no less than 250 mg/kg/day. For the same compound, the LEL (dog [2]; [26]) was 10 mg/kg/day, the NEL (dog [2]; [26]) was less than 10 mg/kg/day and the LOAEL (dog [3]; [27]) was greater than 100 mg/kg/day. It also gave an NOAEL (dog [3]; [27]) of no less than 100 mg/kg/day, an LEL (dog [3]; [28]) of 5 mg/kg/day and an NEL (dog [3]; [28]) of less than 5 mg/kg/day.

In the case of Nc1ccc(Oc2ccc(N)cc2)cc1 [4,4'-Oxydianiline], the LOAEL (mouse [4]; [29]) is reported as greater than 557 mg/kg/day, the NEL (mouse [4]; [29]) is reported as 68 mg/kg/day and the NOAEL (mouse [4]; [29]) is reported as no less than 557 mg/kg/day. For the same compound, the LEL (mouse [4]; systemic / in life observation / body weight / body weight + systemic / in life observation / body weight / body weight gain + systemic / …) was 138 mg/kg/day, the LOAEL (rat [5]; [30]) was 10 mg/kg/day and the NOAEL (rat [5]; [30]) was less than 10 mg/kg/day. The LEL (rat [5]; [31]) was 10 mg/kg/day, the NEL (rat [5]; [31]) was less than 10 mg/kg/day and the LEL (rat [6]) was 30 mg/kg/day. The LOAEL (rat [6]) was 30 mg/kg/day, the NEL (rat [6]) was 15 mg/kg/day and the NOAEL (rat [6]) was 15 mg/kg/day. For the same compound, the LOAEL (mouse [7]; [32]) was 22.5 mg/kg/day, the NOAEL (mouse [7]; [32]) was less than 22.5 mg/kg/day and the LEL (mouse [7]; [33]) was 22.5 mg/kg/day. It also gave an NEL (mouse [7]; [33]) of less than 22.5 mg/kg/day, an LOAEL (rat [8]; [29]) greater than 168 mg/kg/day and an NOAEL (rat [8]; [29]) of no less than 168 mg/kg/day. The LEL (rat [8]; [34]) was 27 mg/kg/day, the NEL (rat [8]; [34]) was less than 27 mg/kg/day and the LEL (mouse [9]; [32]) was 45 mg/kg/day. The NEL (mouse [9]; [32]) was less than 45 mg/kg/day, the LOAEL (mouse [9]; [35]) was 90 mg/kg/day and the NOAEL (mouse [9]; [35]) was 45 mg/kg/day.

For CCCCOC(=O)c1ccccc1C(=O)OCCCC [Dibutyl phthalate], the LEL (rat [10]; [36]) was 125 mg/kg/day, the NEL (rat [10]; [36]) was less than 125 mg/kg/day and the LOAEL (rat [10]; [37]) was greater than 2000 mg/kg/day. It also gave an NOAEL (rat [10]; [37]) of no less than 2000 mg/kg/day, an LOAEL (rat [11]; group: developmental, systemic / in life observation / body weight / fetal weight) of 630 mg/kg/day and an LEL (rat [11]; [38]) of 630 mg/kg/day. For the same compound, the NEL (rat [11]; [38]) was 500 mg/kg/day, the NOAEL (rat [11]; [38]) was 500 mg/kg/day and the LEL (rat [11]; [39]) was 630 mg/kg/day. For the same compound, the LOAEL (rat [11]; [39]) was 630 mg/kg/day, the NEL (rat [11]; [39]) was 500 mg/kg/day and the NOAEL (rat [11]; [39]) was 500 mg/kg/day. For the same compound, the LEL (rat [12]; [40]) was 531 mg/kg/day, the LOAEL (rat [12]; [40]) was greater than 531 mg/kg/day and the NEL (rat [12]; [40]) was 51.8 mg/kg/day. For the same compound, the NOAEL (rat [12]; [40]) was no less than 531 mg/kg/day, the LOAEL (rat [12]; [41]) was greater than 531 mg/kg/day and the NEL (rat [12]; [41]) was 1.61 mg/kg/day. It also gave an NOAEL (rat [12]; [41]) of no less than 531 mg/kg/day, an LEL (rat [12]; group: parental, systemic / organ weight / adrenal gland / relative to body weight) of 5.35 mg/kg/day and an LEL (rat [12]; group: reproductive, reproductive / reproductive performance / estrous cycle / periodicity) of 95.3 mg/kg/day. For the same compound, the LOAEL (rat [12]; [42]) was greater than 1020 mg/kg/day, the NEL (rat [12]; [42]) was 9.24 mg/kg/day and the NOAEL (rat [12]; [42]) was no less than 1020 mg/kg/day.

In the case of CNc1ccccc1C(=O)OC [Methyl 2-(methylamino)benzoate], the LOAEL (rat [13]; [43]) is reported as greater than 244 mg/kg/day, the NEL (rat [13]; [43]) is reported as 21 mg/kg/day and the NOAEL (rat [13]; [43]) is reported as no less than 244 mg/kg/day. For the same compound, the LEL (rat [13]; systemic / hematology / leukocyte (wbc) count differential / leukocyte (wbc) + systemic / organ weight / kidney / absolute + systemic / …) was 82 mg/kg/day.

CN(C)c1ccc(C(=O)c2ccc(N(C)C)cc2)cc1 [Michler's ketone] gave an LOAEL (mouse [14]; [44]) of 188 mg/kg/day, an NOAEL (mouse [14]; [44]) of less than 188 mg/kg/day and an LEL (mouse [14]; [45]) of 188 mg/kg/day. The NEL (mouse [14]; [45]) was less than 188 mg/kg/day, the LOAEL (rat [15]; [44]) was 12.5 mg/kg/day and the NOAEL (rat [15]; [44]) was less than 12.5 mg/kg/day. It also gave an LEL (rat [15]; [45]) of 12.5 mg/kg/day and an NEL (rat [15]; [45]) of less than 12.5 mg/kg/day.

For Oc1cccc(O)c1 [Resorcinol], the LOAEL (rat [16]; [46]) was greater than 520 mg/kg/day, the NOAEL (rat [16]; [46]) was no less than 520 mg/kg/day and the LEL (rat [16]; [47]) was 32 mg/kg/day. It also gave an NEL (rat [16]; [47]) of less than 32 mg/kg/day, an LEL (rat [17]) of 500 mg/kg/day and an LOAEL (rat [17]) greater than 500 mg/kg/day. For the same compound, the NEL (rat [17]) was 250 mg/kg/day, the NOAEL (rat [17]) was no less than 500 mg/kg/day and the LEL (mouse [18]; [47]) was 28 mg/kg/day. For the same compound, the NEL (mouse [18]; [47]) was less than 28 mg/kg/day, the LOAEL (mouse [18]; [48]) was greater than 420 mg/kg/day and the NOAEL (mouse [18]; [48]) was no less than 420 mg/kg/day. For the same compound, the LEL (mouse [19]) was 225 mg/kg/day, the LOAEL (mouse [19]) was 225 mg/kg/day and the NEL (mouse [19]) was 112 mg/kg/day. For the same compound, the NOAEL (mouse [19]) was 112 mg/kg/day, the LEL (rat [20]) was 100 mg/kg/day and the LOAEL (rat [20]) was 100 mg/kg/day. For the same compound, the NEL (rat [20]) was 50 mg/kg/day, the NOAEL (rat [20]) was 50 mg/kg/day and the LOAEL (rat [21]; [49]) was greater than 233 mg/kg/day. For the same compound, the NEL (rat [21]; [49]) was 31 mg/kg/day, the NOAEL (rat [21]; [49]) was no less than 233 mg/kg/day and the LEL (rat [21]; systemic / in life observation / water consumption / water consumption) was 86 mg/kg/day.

For C=Cc1ccccc1 [Styrene], the LEL (rat [22]; systemic / in life observation / body weight / body weight gain + systemic / in life observation / body weight / offspring (pup) weight) was 150 ppm, the NEL (rat [22]; systemic / in life observation / body weight / body weight gain + systemic / in life observation / water consumption / water consumption) was 50 ppm and the LOAEL (rat [22]; [49]) was greater than 500 ppm. For the same compound, the NOAEL (rat [22]; [49]) was no less than 500 ppm.
